We go through eleven molecules from US7803764B2, “Amphipathic glycopeptides” (The Arizona Board of Regents on Behalf of the University of …, priority 2004, dated 2010).

Non-standard residues stand in square brackets, D forms with d. No end group written: not given here. *: point of attachment. βGlc = OC[C@H]1O[C@@H](*)[C@H](O)[C@@H](O)[C@@H]1O; Aib = CC(C)(N)C(=O)O; βAla = NCCC(=O)O

Data set [1] concerns the target δ opioid receptor (Homo sapiens, UniProt P41143). The data set can be described thus: opioid receptor binding, δ receptor.
In data set [2] the target is μ opioid receptor (Homo sapiens, UniProt P35372). The data set can be described thus: opioid receptor binding, μ receptor.
Chain of μ opioid receptor (P35372 whole entry): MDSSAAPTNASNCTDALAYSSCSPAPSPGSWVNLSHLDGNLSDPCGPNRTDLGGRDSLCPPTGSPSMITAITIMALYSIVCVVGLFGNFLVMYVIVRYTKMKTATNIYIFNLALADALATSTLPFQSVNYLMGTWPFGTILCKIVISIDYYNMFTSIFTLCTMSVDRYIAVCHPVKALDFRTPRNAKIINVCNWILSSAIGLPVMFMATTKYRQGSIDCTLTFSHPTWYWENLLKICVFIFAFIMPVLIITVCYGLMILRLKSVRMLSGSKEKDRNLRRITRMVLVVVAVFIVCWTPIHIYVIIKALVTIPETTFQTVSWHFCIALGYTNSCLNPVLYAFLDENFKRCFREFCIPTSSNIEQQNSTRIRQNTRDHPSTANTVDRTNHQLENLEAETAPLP
Data set [3] can be described thus: in vivo antinociception after i.c.v. administration. Set-up: species or system mice. The conditions noted are these: i.c.v., mice; for A50 i.c.v.: antinociception.
Data set [4] is described as follows: helicity by circular dichroism. Format: physicochemical. The settings on record: for % α-helicity: CD, SDS micelles (30 mM), pH = 7.0, 18° C. How it is done:
Circular Dichroism. All of the circular dichroism experiments were carried out on Aviv Associates model 60DS using an Endcal Model RTE4DD water circulator as a temperature-control vehicle. The instrument was calibrated by using d-10-camphorsulphonic acid. The spectra were recorded between 200 and 250 nm by using the continuous mode with a 1.5 nm bandwidth, a three second response and a scan step of 0.5 nm in a cell with a path length of 0.1 cm. Three or five scans were accumulated and averaged for each spectrum. Glycopeptide stock solutions were prepared by weighing the required amount, using Cahn/Ventron Instruments Model 21 automatic analytical electrobalance, to make 1 mL of a 0.5-1.0 mM solution and the pH was adjusted to the desired value. Samples were prepared by diluting the stock solution to 70-80 μM. All observed spectra were baseline-subtracted and smoothed by adjacent average of 5 points using Microcal Origin Ver. 5.0 software (Microcal Software Inc, USA). The molar ellipticities were determined using the formula [θ]=[θ]obs·(MRW)/10·l·C, where [θ]obs observed ellipticity in millidegrees, MRW is the mean residue weight, l is the cell path length in centimeters and C is the glycopeptide concentration in mg/mL. The percent α-helicity was determined by using the formula % helix=[θ]n→π*/−40,000 (1−2.5/n)·100, where n represents the number of amide bonds (including the C-terminal amide) in the glycopeptide and [θ]n→π** is molar ellipticity of n→π* transition band at 222 nm.^55
Conformational Analysis by CD. Circular dichroism (CD) is a powerful and simple tool for identifying secondary structure in both peptides and proteins.^64 All the peptides were subjected to CD analysis in H2O, TFE-H2O mixtures, SDS micelles and phospholipid bicelles. In H2O, a negative band near 200 nm is observed that arises from the π→π* electronic transition and is typical of random coil peptides. […] This behavior is explained as nascent helices.^65 In these nascent helices, helix CD signals could be induced by the addition of TFE.^66 All the glycopeptides gave an increased helix CD signal in TFE. The percentage of helicity increases as TFE concentration increases, but reached a maximum at 30% TFE. The increase in helicity in TFE can be attributed to decreased competition by H2O for hydrogen bonding to the backbone amides. […] In the presence of SDS micelles and anionic bicelles, the band at 200 nm underwent a red shift (higher value) and an additional shoulder appears around 222 nm as a result of the n→π* transition. […] The negative maxima at 222 nm (n→π* transition band) is used to calculate the helical content of polypeptides and proteins. The accepted value for a peptide that is 100% helical is approximately −35,000. It was observed that changes in amplitude of the bands up to 30% depend on length of helix.^67 The amplitude increases as α-helical chain length increases. Therefore, one has to consider the importance of chain-length dependence of the α-helix CD in the quantitative treatment of helix content in proteins and polypeptides. The percentage of helicity is independent of SDS concentration and pH (data not shown). In the presence of zwitterionic bicelles all of the glycopeptides yielded CD spectra similar to that observed in H2O, but anionic bicelles forced them to become more helical. The intensities of the [θ]π→π* band and the [θ]n→π* band are expected to be almost equal for a perfect α-helical peptide. […] A modest blue shift and reduced intensity for the [θ]n→π* transition bands are observed for all the glycopeptides in TFE. […] The glycopeptides 9 (Pro/Glc) and 12 (Pro/Lactose), which differ only by the sugar moiety attached, adopt perfect helices in the presence of SDS micelles and in anionic bicelles. The disaccharide increased the percentage of helicity in all the solvents, relative to the monosaccharide. […] It is remarkable to note that a single amino acid mutation at position 6 produced profound changes in the CD spectra. […]

The nature of data set [5]: helicity by NMR αCH chemical shift index. In kind it is physicochemical. The protocol: NMR Spectroscopy. All NMR spectra were recorded on a Bruker DRX600 600 MHz spectrometer. Glycopeptide concentration for the NMR experiments varied from 2-3 mM. The glycopeptides were prepared in TFE-water solution by dissolving the peptide in 0.6 ml solution of a premixed 30% TFE-water mixture. The micelle samples were prepared by dissolving the glycopeptide and 100 equivalent of perdeuterated SDS in 0.6 ml of H2O/D2O (9:1 ratio by volume). Bicelles were produced from deuterated phospholipids. The zwitterionic bicelles were made by mixing the short chain phospholipid dihexanoyl-sn-glycero-3-phosphatidylcholine-d22 (DHPC) and the long chain 1,2-dimyristoyl-sn-glycero-3-phosphatidylcholine-d54 (DMPC) in the molar ratio of 2:1 in H2O. The […] were prepared by substituting 10 mol % of 1,2-dimyristoyl-sn-glycero-3-phospho-1-glycerol-d54 (DMPG) for DMPC. The glycopeptide to bicelle ratio was 1:25. After the glycopeptide was added to the bicelle solution, the system was submitted to a series o f three freeze/thaw/slight vortex shaking cycles. The pH of the each sample was adjusted to 4.5 by using DCl or NaOD as necessary. TSP (3-(trimethylsilyl)-d4-propionic acid) was added as an internal standard. The experiments in F3CCD2OD/H2O mixtures were at 293 K and for experiments in micelles/bicelles were at 298 or 311 K. Two-dimensional double quantum filtered correlation (DQF-COSY), rotating-frame Overhauser enhancement^56 (ROESY), Nuclear Overhauser enhancement^57 (NOESY), and total correlation spectra^58 (TOCSY) were acquired using standard pulse sequences and processed using XWINNMR (Bruker Inc) and FELIX2000 (Accelrys Inc, San Diego, Calif.), Mixing times for TOCSY spectra were either 80 or 100 ms. Mixing times for ROESY spectra were 150 or 250 ms, and for NOESY spectra were 200 or 300 ms. All experiments were 750 increments in t1, 16/32/64 scans each, 1.5 s relaxation delay, size 2 or 4K, and the spectral processing was with shifted sine bell window multiplications in both dimensions.
αCH Chemical Shift Index. […] At this point there is no accepted random coil αCH values for glycosylated serine, CSI values for this position are uncertain. The conformational shift values for all solvents were obtained using the random coil values described by Wright and co-workers.^72 Although, these reference shifts were obtained at pH=5.0 at 4.2° C., they appear to be very insensitive to the conditions, as very small deviations (±0.04) were observed when random coil values are obtained at pH=7.0 at 35° C. by Wuthrich and co-workers.^68 The quantification of secondary structure based on αCH chemical shifts is neglected in the literature because various contributions cannot be strictly accounted for, such as electrostatic effects, ring current shifts, and other magnetic anisotropies. However, it is possible to make qualitative comparison of helical content between closely related (glyco)peptides. Since the 3rd generation glycopeptides differ by only one amino acid at position 6, the helical content was obtained based on the αCH chemical shift values (Table 3). The method described by Gierasch and co-workers^69a was used. First, the average conformational shift was calculated for each glycopeptide by adding all upfield shifts in the helical regions and dividing by the total number of peptide bonds. Then, to obtain the overall helical content for each glycopeptide, the average conformational shift was divided by 0.35 ppm, which was assigned for 100% helicity. Since, there are no random coil values available for β-Alanine and glycosylated serine residues, they were not included in the calculation. The helicogenic Aib residue lacks an α-proton, and there was no correction included in the calculation for the helicity provided by Aib residue. The helical content obtained by this method correlated with the helical content obtained by CD. […]

Data set [6] deals with mu opioid receptor. The data set can be described thus: opioid receptor assay, format not described (Table 1, µ IC50).
Chain of mu opioid receptor (P35372 whole entry): as above
Data set [7] concerns the target delta opioid receptor. The data set can be described thus: opioid receptor assay, format not described (Table 1, δ IC50).

Chain of δ opioid receptor (P41143 whole entry): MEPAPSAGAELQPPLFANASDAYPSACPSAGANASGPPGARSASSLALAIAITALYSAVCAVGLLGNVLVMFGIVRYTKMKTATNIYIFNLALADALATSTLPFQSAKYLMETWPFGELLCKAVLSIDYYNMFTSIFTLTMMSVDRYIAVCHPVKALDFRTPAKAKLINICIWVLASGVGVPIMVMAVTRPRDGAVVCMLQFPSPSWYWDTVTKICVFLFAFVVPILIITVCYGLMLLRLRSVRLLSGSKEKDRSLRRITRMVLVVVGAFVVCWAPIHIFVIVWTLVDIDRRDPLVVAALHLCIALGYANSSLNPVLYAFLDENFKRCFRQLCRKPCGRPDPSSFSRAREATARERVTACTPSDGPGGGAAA

Turning to `CC(C)C[C@H](NC(=O)CNC(=O)[C@H](CC(C)C)NC(=O)[C@H](Cc1ccccc1)NC(=O)CNC(=O)[C@H](NC(=O)[C@@H](N)Cc1ccc(O)cc1)[C@H](C)O)C(=O)N[C@@H](CC(C)C)C(=O)N[C@@H](CCCCN)C(=O)N[C@@H](CO[C@@H]1O[C@H](CO)[C@@H](O)[C@H](O)[C@H]1O)C(=O)N[C@@H](Cc1ccccc1)C(=O)N[C@@H](C)C(=O)N[C@@H](CCC(=O)O)C(=O)N[C@@H](CO[C@@H]1O[C@H](CO)[C@@H](O)[C@H](O)[C@H]1O)C(=O)N[C@@H](Cc1c[nH]c2ccccc12)C(=O)N[C@@H](CO[C@@H]1O[C@H](CO)[C@@H](O)[C@H](O)[C@H]1O)C(=O)N[C@@H](CC(N)=O)C(=O)N[C@@H](Cc1ccccc1)C(N)=O` (relative stereo) [Glycopeptide 6, YtGFLGLLKS*FAES*WS*NF], the IC50 worked out at 11.9 nM in data set [1] and 154 nM in data set [2]. The A50 i.c.v. in data set [3] worked out at 0.028 nmol. Also, in data set [4], the “% α-helicity” value stood at 37%.

Consider `CC(C)C[C@H](NC(=O)[C@H](Cc1ccccc1)NC(=O)CNC(=O)[C@H](NC(=O)[C@@H](N)Cc1ccc(O)cc1)[C@H](C)O)C(=O)NCC(=O)N[C@@H](CCCCN)C(=O)N[C@@H](CO[C@@H]1O[C@H](CO)[C@@H](O)[C@H](O)[C@H]1O)C(=O)N[C@@H](Cc1ccccc1)C(=O)N[C@@H](C)C(=O)N[C@@H](CCC(=O)O)C(=O)N[C@@H](CC(C)C)C(=O)N[C@@H](Cc1c[nH]c2ccccc12)C(=O)N[C@@H](CO[C@@H]1O[C@H](CO)[C@@H](O)[C@H](O)[C@H]1O)C(=O)N[C@@H](CC(N)=O)C(=O)N[C@@H](Cc1ccccc1)C(=O)N[C@@H](CC(C)C)C(=O)N[C@@H](CO[C@@H]1O[C@H](CO)[C@@H](O)[C@H](O)[C@H]1O)C(N)=O` (relative stereo) [Glycopeptide 7, YtGFLGKS*FAELWS*NFLS*], for which the half-maximal inhibitory concentration (IC50) in data set [1] came out at 25.6 nM; in data set [2], 38.2 nM. In data set [3], this molecule registered an A50 i.c.v. of 0.096 nmol. Also, the “% α-helicity” value in data set [4] is 15%.

As for YtGFLGALKS*FAES*LS*NA [Glycopeptide 5], the “% α-helicity” value in data set [4] amounted to 58%.

Take YtGFLGLLKS*FWES*WS*NF [Glycopeptide 8]: the “in vivo potency and duration of action (in words)” value in data set [3] (within 2nd generation series) is “lowest potency in vivo, but longest duration of action”. The “% α-helicity” value in data set [4] came out at 39%.

Regarding YtGFLPNLBEKALKS**L [Glycopeptide 12], the “% α-helicity by CD” value in data set [4] (solvent Bicelle A (anionic bicelles)) was 33%; in data set [4] (solvent H2O) it was over 1%; in data set [4] (solvent SDS micelles), 33%; in data set [4] (solvent TFE) it was 23%. Besides, the “% α-helicity by NMR” value in data set [5] (solvent H2O) is reported as 22%; in data set [5] (solvent SDS micelles), 29%; in data set [5] (solvent TFE) it was 34%.

Consider Y[dT]GFL[βAla]NL[Aib]EKALKS(βGlc)L-NH2 [Glycopeptide 10 (YtGFLβANLBEKALKS*L)], for which the IC50 in data set [6] stood at 153 nM; in data set [7], 109 nM.

Consider Y[dT]GFLGLLKS(βGlc)FAES(βGlc)WS(βGlc)NF-NH2 [Glycopeptide 6 (YtGFLGLLKS*FAES*WS*NF)], for which the IC50 in data set [6] was determined as 154 nM; in data set [7], 11.9 nM.

For the molecule Y[dT]GFLGGNL[Aib]EKALKS(βGlc)L-NH2 [Glycopeptide 11 (YtGFLGGNLBEKALKS*L)], the IC50 is 53 nM in data set [6] and 32.5 nM in data set [7].

Consider Y[dT]GFLPNL[Aib]EKALKS(βGlc)L-NH2 [Glycopeptide 9 (YtGFLPNLBEKALKS*L)], for which the half-inhibitory concentration (IC50) in data set [6] was 90.8 nM; in data set [7], 6.15 nM.

Regarding Y[dT]GFLGELAS(βGlc)KWFNALES(βGlc)-NH2 [Glycopeptide 2 (YtGFLGELAS*KWFNALES*)], the 50% inhibitory concentration (IC50) in data set [6] was found to be 144 nM; in data set [7] it was 9.5 nM.

Regarding Y[dT]GFLGKS(βGlc)FAELWS(βGlc)NFLS(βGlc)-NH2 [Glycopeptide 7 (YtGFLGKS*FAELWS*NFLS*)], the IC50 in data set [6] came to 38.2 nM; in data set [7] it was 25.6 nM.
